According to PubChem BioAssay AID248 (DTP/NCI, 2004):
Several values for one entry are separate records, joined by “and”; a condition that tells them apart may be missing. Equal entries are not always repeated. Toxic doses and inconclusive results are not listed. No stated cut-off is given here; in the data, active means T/C of 150% or more; inactive means T/C below 125%.

System: L1210 leukemia ip in BDF1 mice, survival T/C
Experiment: NCI In Vivo Anticancer Drug Screen. Data for tumor model L1210 Leukemia (intraperitoneal) in B6D2F1 (BDF1) mice
Conditions: endpoint: mean survival time, higher = longer survival
Method in brief: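 Each compound was tested against a transplantable tumor grown in mice. The endpoint was survival, with treated animals benchmarked against vehicle controls as a simple ratio.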

[1] = dose: 50.0 mg/kg/injection, schedule: Q01DX009 (ip), vehicle: saline
[2] = dose: 100.0 mg/kg/injection, schedule: Q01DX009 (ip), vehicle: saline
[3] = dose: 25.0 mg/kg/injection, schedule: Q01DX009 (ip), vehicle: saline
[4] = dose: 200.0 mg/kg/injection, schedule: Q04DX003 (ip), vehicle: saline sonified
[5] = dose: 400.0 mg/kg/injection, schedule: Q04DX003 (ip), vehicle: saline sonified
[6] = dose: 50.0 mg/kg/injection, schedule: Q01DX001 (ip), vehicle: saline
[7] = dose: 100.0 mg/kg/injection, schedule: Q01DX001 (ip), vehicle: saline
[8] = dose: 200.0 mg/kg/injection, schedule: Q01DX001 (ip), vehicle: saline
[9] = dose: 400.0 mg/kg/injection, schedule: Q01DX001 (ip), vehicle: saline
[10] = dose: 100.0 mg/kg/injection, schedule: Q01DX009 (ip), vehicle: Klucel (hydroxypropylcellulose) (HPC)
[11] = dose: 100.0 mg/kg/injection, schedule: Q04DX003 (ip), vehicle: Klucel (hydroxypropylcellulose) (HPC)
[12] = dose: 200.0 mg/kg/injection, schedule: Q01DX009 (ip), vehicle: Klucel (hydroxypropylcellulose) (HPC)
[13] = dose: 200.0 mg/kg/injection, schedule: Q04DX003 (ip), vehicle: Klucel (hydroxypropylcellulose) (HPC)
[14] = dose: 400.0 mg/kg/injection, schedule: Q01DX009 (ip), vehicle: Klucel (hydroxypropylcellulose) (HPC)
[15] = dose: 400.0 mg/kg/injection, schedule: Q04DX003 (ip), vehicle: Klucel (hydroxypropylcellulose) (HPC)
[16] = dose: 100.0 mg/kg/injection, schedule: Q04DX002 (ip), vehicle: saline
[17] = dose: 200.0 mg/kg/injection, schedule: Q04DX002 (ip), vehicle: saline
[18] = dose: 400.0 mg/kg/injection, schedule: Q04DX002 (ip), vehicle: saline
[19] = dose: 25.0 mg/kg/injection, schedule: Q01DX009 (ip), vehicle: Klucel (hydroxypropylcellulose) (HPC)
[20] = dose: 50.0 mg/kg/injection, schedule: Q01DX009 (ip), vehicle: Klucel (hydroxypropylcellulose) (HPC)

Measured: T/C

CN(C)N=C1CCCC1
inactive: [1] 103 % of control | [2] 103 % of control

CN1CC(C(=O)NC(C)(C)C)CC(c2ccccc2)C1 (stereo unspecified)
inactive: dose: 6.25 mg/kg/injection, schedule: Q01DX009 (ip), vehicle: saline 91 % of control | dose: 12.5 mg/kg/injection, schedule: Q01DX009 (ip), vehicle: saline 86 % of control | [3] 86 % of control

CCCCCCCCCCCCOc1ccc(C2(c3ccc(CCCCCCCCCCCC)cc3)CCCCC2)cc1
inactive: dose: 100.0 mg/kg/injection, schedule: Q01DX001 (ip), vehicle: Klucel (hydroxypropylcellulose) (HPC) 101 % of control | dose: 200.0 mg/kg/injection, schedule: Q01DX001 (ip), vehicle: Klucel (hydroxypropylcellulose) (HPC) 101 % of control | dose: 400.0 mg/kg/injection, schedule: Q01DX001 (ip), vehicle: Klucel (hydroxypropylcellulose) (HPC) 106 % of control

OC1CCC2C=CCC1S2 (stereo unspecified)
inactive: dose: 100.0 mg/kg/injection, schedule: Q01DX009 (ip), vehicle: gum acacia 101 % of control | dose: 200.0 mg/kg/injection, schedule: Q01DX009 (ip), vehicle: gum acacia 100 % of control | dose: 400.0 mg/kg/injection, schedule: Q01DX009 (ip), vehicle: gum acacia 97 % of control

NC1(C(=O)O)Cc2ccccc2C1
inactive: dose: 50.0 mg/kg/injection, schedule: Q01DX001 (ip), vehicle: olive oil, sesame oil, peanut oil 101 % of control | dose: 100.0 mg/kg/injection, schedule: Q01DX001 (ip), vehicle: olive oil, sesame oil, peanut oil 101 % of control | dose: 200.0 mg/kg/injection, schedule: Q01DX001 (ip), vehicle: olive oil, sesame oil, peanut oil 112 % of control | dose: 400.0 mg/kg/injection, schedule: Q01DX001 (ip), vehicle: olive oil, sesame oil, peanut oil 104 % of control

FC(F)(CI)C(F)(F)C(F)(F)CI
inactive: dose: 100.0 mg/kg/injection, schedule: Q01DX001 (ip), vehicle: acetone 88 % of control | dose: 200.0 mg/kg/injection, schedule: Q01DX001 (ip), vehicle: acetone 88 % of control | dose: 400.0 mg/kg/injection, schedule: Q01DX001 (ip), vehicle: acetone 88 % of control

CCCCOCCOc1ccc(C(=O)OC)cc1
inactive: dose: 100.0 mg/kg/injection, schedule: Q04DX003 (ip), vehicle: saline sonified 101 % of control | [4] 111 % of control | [5] 101 % of control

CC(C)NC(C)Cc1ccccc1 (stereo unspecified)
inactive: dose: 25.0 mg/kg/injection, schedule: Q01DX001 (ip), vehicle: saline 93 % of control | [6] 91 % of control

Cc1cc(O)c(C(=O)/C=C/c2ccccc2)c(=O)[nH]1
inactive: [7] 86 % of control | [8] 96 % of control | [9] 92 % of control

CCOc1ccccc1NC(=O)Nc1cccc2ccccc12
inactive: [10] 104 % of control | [11] 90 % of control | [12] 96 % of control | [13] 91 % of control | [14] 102 % of control | [15] 88 % of control

O=C1c2ccccc2-c2cc(Cl)c(Cl)cc21
inactive: [11] 96 % of control | [13] 103 % of control | [15] 105 % of control

CCC(NC(=O)CN)C(=O)O (stereo unspecified)
inactive: [2] 100 % of control and 107 % of control | [16] 97 % of control and 101 % of control and 91 % of control | dose: 100.0 mg/kg/injection, schedule: Q04DX003 (ip), vehicle: saline 93 % of control | dose: 200.0 mg/kg/injection, schedule: Q01DX009 (ip), vehicle: saline 102 % of control and 92 % of control | [17] 97 % of control and 105 % of control | dose: 200.0 mg/kg/injection, schedule: Q04DX003 (ip), vehicle: saline 94 % of control | dose: 400.0 mg/kg/injection, schedule: Q01DX009 (ip), vehicle: saline 102 % of control and 111 % of control | [18] 108 % of control and 100 % of control and 118 % of control | dose: 400.0 mg/kg/injection, schedule: Q04DX003 (ip), vehicle: saline 98 % of control

O=C(O)/C=C\Cl
inactive: [3] 104 % of control | [1] 98 % of control | [2] 96 % of control | [16] 100 % of control and 94 % of control | [17] 93 % of control and 105 % of control | [18] 102 % of control

Brc1cscc1Cc1cscc1Br
inactive: dose: 100.0 mg/kg/injection, schedule: Q01DX001 (ip), vehicle: saline with Tween-80 91 % of control | dose: 200.0 mg/kg/injection, schedule: Q01DX001 (ip), vehicle: saline with Tween-80 97 % of control | dose: 400.0 mg/kg/injection, schedule: Q01DX001 (ip), vehicle: saline with Tween-80 94 % of control

CCOC(=O)C(C)(C)CO
inactive: [4] 103 % of control | [5] 93 % of control | dose: 800.0 mg/kg/injection, schedule: Q04DX003 (ip), vehicle: saline sonified 101 % of control

CCOC(=O)C1=CCC(n2cc(F)c(=O)[nH]c2=O)O1 (stereo unspecified)
inactive: dose: 100.0 mg/kg/injection, schedule: Q04DX003 (ip), vehicle: saline with Tween-80 98 % of control | dose: 200.0 mg/kg/injection, schedule: Q04DX003 (ip), vehicle: saline with Tween-80 102 % of control | dose: 400.0 mg/kg/injection, schedule: Q04DX003 (ip), vehicle: saline with Tween-80 98 % of control

O=C(O)CN1C(=O)CNC12CCCCC2
inactive: [7] 95 % of control | [8] 101 % of control | [9] 97 % of control

CCN(CC)c1ccc(NC(C)=O)cc1
inactive: dose: 12.5 mg/kg/injection, schedule: Q01DX009 (ip), vehicle: Klucel (hydroxypropylcellulose) (HPC) 106 % of control | dose: 12.5 mg/kg/injection, schedule: Q04DX003 (ip), vehicle: Klucel (hydroxypropylcellulose) (HPC) 92 % of control | [19] 97 % of control | dose: 25.0 mg/kg/injection, schedule: Q04DX003 (ip), vehicle: Klucel (hydroxypropylcellulose) (HPC) 91 % of control | [20] 95 % of control

O=C(CCCC(=O)N/N=C/c1c(O)ccc2ccccc12)N/N=C/c1c(O)ccc2ccccc12
inactive: [6] 96 % of control | [7] 96 % of control | [8] 96 % of control | [9] 93 % of control

CC1=CC(=C(c2ccccc2)c2ccccc2)C=C(C)C1=O
inactive: dose: 12.0 mg/kg/injection, schedule: Q01DX009 (ip), vehicle: Klucel (hydroxypropylcellulose) (HPC) 103 % of control | [19] 107 % of control | [20] 97 % of control | [10] 100 % of control | [11] 102 % of control | [13] 102 % of control | [15] 122 % of control

CC(=O)c1cccc(NC(=O)Oc2cc(=O)oc3ccccc23)c1
inactive: [19] 92 % of control | [20] 101 % of control | [10] 101 % of control

CC(=O)Cc1cc(C)nc(NC#N)n1
inactive: dose: 100.0 mg/kg/injection, schedule: Q04DX002 (ip), vehicle: Klucel (hydroxypropylcellulose) (HPC) 102 % of control | dose: 200.0 mg/kg/injection, schedule: Q04DX002 (ip), vehicle: Klucel (hydroxypropylcellulose) (HPC) 98 % of control

O=c1cc(S(=O)(=O)c2ccccc2)[nH]c(=O)[nH]1
inactive: [11] 97 % of control | [13] 101 % of control

CC(=O)c1cccc(NC(=O)N(C)Cc2ccccc2)c1
inactive: [10] 109 % of control | [12] 100 % of control | [14] 112 % of control

CN1CN(c2ccccc2)C2(CCN(Cc3cc(=O)c4ccccc4o3)CC2)C1=O
inactive: [11] 102 % of control | [13] 101 % of control | [15] 98 % of control
